Reference: publication PMC4522690 (Journal of medicinal chemistry, 2015)

Legend:
TFR-PR [1] = biological target: T1, TFR-PR (Human immunodeficiency virus type 1, UniProt P03366); details: cited from earlier work
TFR-PR20 [2] = details: cited from earlier work
PR20 [3] = biological target: PR20 (Human immunodeficiency virus type 1, UniProt P03366, D530N/I547V/I584V, form not given); experiment: Kinetic assay of PR20 proteolytic activity with fluorogenic substrate; format: biochemical, HIV-1; details: versus darunavir KL 41 nM
TFR-PR [4] = biological target: T1, TFR-PR; experiment: Inhibition of N-terminal autoprocessing of wild-type precursor in E. coli; format: cell-based, HIV-1
TFR-PR20 [5] = experiment: Inhibition of N-terminal autoprocessing of mutant precursor in E. coli; format: cell-based, HIV-1; details: tests up to 100 μM concentration
[6] = tested on: highly darunavir resistant strain of HIV-1; details: strain selected in the laboratory; cited from earlier work
[7] = blood–brain barrier penetration; cited from earlier work
PR20 [8] = experiment: Kinetic assay of PR20 proteolytic activity with fluorogenic substrate; format: biochemical, HIV-1; details: Ki PR20 / Ki wild-type PR
PR20 [9] = details: compared with darunavir or wild-type PR; cited from earlier work

Structure (SMILES)	inhibition of autoprocessing of TFR-PR relative to other clinical protease inhibitors (in words) (TFR-PR [1])	inhibition of autoprocessing of PR20-containing precursors (in words) (TFR-PR20 [2])	IC50 (TFR-PR [4])	inhibition of autoprocessing of TFR-PR20 precursor (TFR-PR20 [5])	further results
CC(C)(C)NC(=O)[C@@H]1C[C@@H]2CCCC[C@@H]2CN1C[C@@H](O)[C@H](Cc1ccccc1)NC(=O)[C@H](CC(N)=O)NC(=O)c1ccc2ccccc2n1 [saquinavir]	inhibited most effectively				
CC(C)CN(C[C@@H](O)[C@H](Cc1ccccc1)NC(=O)O[C@H]1CO[C@H]2OCC[C@H]21)S(=O)(=O)c1ccc(N)cc1 [darunavir]	inhibited most effectively	like darunavir, neither GRL-02031A nor GRL-0519A inhibits the autoprocessing			
CC(C)CN(C[C@@H](O)[C@H](Cc1ccccc1)NC(=O)O[C@H]1CO[C@H]2OCC(F)(F)[C@H]21)S(=O)(=O)c1ccc(N)cc1 [GRL-5010A]			1000 to 2000 nM	no significant improvement was observed in the inhibition	fold lower Ki for PR20 relative to darunavir binding affinity (KL) (PR20 [3]): about 2 fold; antiviral activity against highly darunavir resistant HIV-1 (in words) [6]: moderate antiviral activity; fold higher apparent permeability coefficient (Papp) than darunavir [7]: 6.5 fold
COC(=O)N[C@H](C(=O)N[C@@H](Cc1ccccc1)[C@@H](O)CN(Cc1ccc(-c2ccccn2)cc1)NC(=O)[C@@H](NC(=O)OC)C(C)(C)C)C(C)(C)C [atazanavir]	inhibited most effectively				
COc1ccc(S(=O)(=O)N(CC(C)C)C[C@@H](O)[C@H](Cc2ccccc2)NC(=O)O[C@H]2CO[C@H]3OC[C@H](OC)[C@H]32)cc1 [GRL-4410A]			1000 to 2000 nM	no significant improvement was observed in the inhibition	fold weaker inhibition (Ki) of PR20 than wild-type PR (PR20 [8]): 1000 fold
COc1ccc(S(=O)(=O)N(C[C@H]2CCC(=O)N2)C[C@@H](O)[C@H](Cc2ccccc2)NC(=O)O[C@@H]2C[C@@H]3CCO[C@@H]3C2)cc1 [GRL-02031A]		neither GRL-02031A nor GRL-0519A inhibits the autoprocessing			binding affinity for PR20 (in words) (PR20 [9]): weaker affinity for PR20
